In the supplement of paper PMC4862054:

How the values were obtained:
[1] = system: Hs578T; conditions: 72 h
Method: (§1)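 Drug sensitivity and resistance testing (DSRT) of breast cancer cell lines in 384-well plates, 5 concentrations in 10-fold dilutions over a compound-specific 10,000-fold range. After 72 h, cytotoxicity was read by CellTox Green fluorescence and viability by CellTiter-Glo luminescence (multiplexed), normalised to DMSO and benzethonium chloride controls. EC50 is the inflection point of the fitted dose-response curve (bottom asymptote free, so it can be relative for partial curves) and is censored at the highest tested concentration. Rows with DSS 0 (no meaningful response) were excluded.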

[2] = system: SK-BR-3; assay: normalised viability (% of control), CellTiter-Blue; higher = more viable cells (about 100 = DMSO control); conditions: incubation time: 72 h
In short: (§2)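 Compound dissolved in 5 µl medium was pre-loaded into 384-well plates, and breast cancer cell lines in 20 µl suspension were seeded on top and incubated 72 h. After adding 2.5 µl CellTiter-Blue reagent for 2 h at 37 °C, fluorescence was read at 560/590 nm. Plates were normalised to vehicle (100) and a positive kill control (0), with Z'-factor quality control. Each value is normalised viability at a single listed concentration from the series.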

[3] = system: DU-4475; assay: as above; conditions: incubation time: 72 h
In short: as §2

[4] = system: MFM-223; assay: as above; conditions: incubation time: 72 h
In short: as §2

[5] = system: HDQ-P1; assay: as above; conditions: incubation time: 72 h
In short: as §2

[6] = system: BT-549; assay: as above; conditions: incubation time: 72 h
In short: as §2

[7] = system: MDA-MB-231; assay: as above; conditions: incubation time: 72 h
In short: as §2

[8] = system: HCC1143; assay: as above; conditions: incubation time: 72 h
In short: as §2

[9] = system: CAL-148; assay: as above; conditions: incubation time: 72 h
In short: as §2

[10] = system: DU-4475; conditions: 72 h
In short: (§3)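 A 20 µl suspension of breast cancer cells was placed in 384-well plates that already contained compound at 5 concentrations in 10-fold steps across a compound-specific 10,000-fold range, and the plates were left for 72 h. CellTox Green fluorescence at 485/520 nm gave cell death, and CellTiter-Glo luminescence, read after 10 min at room temperature, gave viability. Each plate was normalised to 0.1 % DMSO and a positive kill control. EC50 was fitted from the curves and censored at the top concentration.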

[11] = system: MFM-223; conditions: 72 h
In short: as §3

[12] = system: HCC1599; conditions: 72 h
In short: as §3

[13] = system: HCC1143; conditions: 72 h
In short: as §3

[14] = system: CAL-148; conditions: 72 h
In short: as §3

[15] = system: SK-BR-3; conditions: 72 h
In short: (§4)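 For viability, cells received 2.5 µl CellTiter-Blue for 2 h at 37 °C and fluorescence was read at 560/590 nm. Before this, breast cancer cell lines in 20 µl suspension had been incubated for 72 h on 384-well plates pre-loaded with compound dissolved in 5 µl medium. EC50 was obtained from a percent-inhibition dose-response fit censored at the highest concentration, after normalisation of each plate to vehicle and a positive kill control; rows with a zero drug sensitivity score were discarded.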

[16] = system: HCC1937; conditions: 72 h
In short: as §4

[17] = system: MFM-223; conditions: 72 h; remark: listed apart in the source
In short: as §4

[18] = system: MDA-MB-468; conditions: 72 h
In short: as §4

[19] = system: HCC1599; conditions: 72 h; remark: listed apart in the source
In short: as §4

[20] = system: Hs578T; conditions: 72 h; remark: listed apart in the source
In short: as §4

[21] = system: BT-549; conditions: 72 h
In short: as §4

[22] = system: MDA-MB-231; conditions: 72 h
In short: as §4

[23] = system: MDA-MB-436; conditions: 72 h
In short: as §4

[24] = system: BT-474; conditions: 72 h
In short: as §4

[25] = system: CAL-120; conditions: 72 h
In short: as §4

[26] = system: HCC1143; conditions: 72 h; remark: listed apart in the source
In short: as §4

[27] = system: CAL-51; conditions: 72 h
Method: as §1

[28] = system: MDA-MB-436; conditions: 72 h; remark: listed apart in the source
Method: as §1

[29] = system: CAL-148; conditions: 72 h; remark: listed apart in the source
Method: as §1

[30] = system: DU-4475; conditions: 72 h; remark: listed apart in the source
In short: as §4

[31] = system: HDQ-P1; conditions: 72 h
In short: as §4

[32] = system: CAL-85-1; conditions: 72 h
In short: as §4

[33] = system: CAL-51; conditions: 72 h; remark: listed apart in the source
In short: as §4

[34] = system: CAL-148; conditions: 72 h; remark: listed apart in the source
In short: as §4

[35] = system: HDQ-P1; conditions: 72 h; remark: listed apart in the source
In short: as §3

[36] = system: MCF-10A; conditions: 72 h
Method: as §1

[37] = system: MDA-MB-453; conditions: 72 h
Method: as §1

[38] = system: MDA-MB-231; conditions: 72 h; remark: listed apart in the source
Method: as §1

[39] = system: CAL-120; conditions: 72 h; remark: listed apart in the source
Method: as §1

[40] = system: CAL-85-1; conditions: 72 h; remark: listed apart in the source
Method: as §1

SMILES: Nc1ncnc2c1c(COc1cccc(Cl)c1)nn2C1CCOCC1
- EC50, CellTox Green [1]: > 10000 nM

SMILES: Cc1cc2c(C(C)C)c(O)c(O)c(C=O)c2c(O)c1-c1c(C)cc2c(C(C)C)c(O)c(O)c(C=O)c2c1O [Gossypol]
- normalised viability ([2]; 100000 nM): 1.49%
- normalised viability ([3]; 1000 nM): 113%
- normalised viability ([4]; 100000 nM): 4.14%
- normalised viability ([5]; 1000 nM): 128%
- normalised viability ([6]; 100000 nM): 2.19%
- normalised viability ([7]; 100000 nM): 5.74%
- normalised viability ([8]; 100000 nM): 15.7%
- normalised viability ([9]; 1000 nM): 107%

SMILES: CN(C)CCN1C(=O)c2cccc3cc(N)cc(c23)C1=O [Amonafide]
- EC50, CellTiter-Glo [10]: 3300 nM
- EC50, CellTiter-Glo [11]: 7400 nM
- EC50, CellTiter-Glo [12]: > 10000 nM
- EC50, CellTiter-Glo [13]: 3330 nM
- EC50, CellTiter-Glo [14]: 4300 nM
- EC50, CellTiter-Blue viability [15]: 5740 nM
- EC50, CellTiter-Blue viability [16]: 1110 nM
- EC50, CellTiter-Blue viability [17]: 7280 nM
- EC50, CellTiter-Blue viability [18]: 6670 nM
- EC50, CellTiter-Blue viability [19]: 9620 nM
- EC50, CellTiter-Blue viability [20]: 9380 nM
- EC50, CellTiter-Blue viability [21]: 9680 nM
- EC50, CellTiter-Blue viability [22]: 2240 nM
- EC50, CellTiter-Blue viability [23]: 2760 nM
- EC50, CellTiter-Blue viability [24]: > 10000 nM
- EC50, CellTiter-Blue viability [25]: 3370 nM
- EC50, CellTiter-Blue viability [26]: 3710 nM
- EC50, CellTox Green [27]: 6260 nM
- EC50, CellTox Green [28]: 44.4 nM
- EC50, CellTox Green [29]: 6190 nM
- EC50, CellTiter-Blue viability [30]: 3240 nM
- EC50, CellTiter-Blue viability [31]: 9740 nM
- EC50, CellTiter-Blue viability [32]: 4450 nM
- EC50, CellTiter-Blue viability [33]: 3320 nM
- EC50, CellTiter-Blue viability [34]: 1830 nM
- normalised viability ([2]; 10000 nM): 20.8%
- normalised viability ([3]; 100 nM): 84.6%
- normalised viability ([4]; 10000 nM): 31.6%
- normalised viability ([5]; 100 nM): 110%
- normalised viability ([6]; 10000 nM): 47.9%
- normalised viability ([7]; 10000 nM): 22.3%
- normalised viability ([8]; 10000 nM): 43.5%
- normalised viability ([9]; 100 nM): 84.7%

SMILES: CC(C)c1c(C(=O)Nc2ccccc2)c(-c2ccccc2)c(-c2ccc(F)cc2)n1CC[C@@H](O)C[C@@H](O)CC(=O)O [Atorvastatin]
- EC50, CellTiter-Glo [35]: 1250 nM
- EC50, CellTiter-Glo [13]: 2030 nM
- EC50, CellTox Green [36]: 1940 nM
- EC50, CellTox Green [37]: > 10000 nM
- EC50, CellTox Green [1]: 3780 nM
- EC50, CellTox Green [27]: 668 nM
- EC50, CellTox Green [38]: 796 nM
- EC50, CellTox Green [39]: 9010 nM

SMILES: O=C1NC(=O)[C@@H](c2cn3c4c(cccc24)CCC3)[C@@H]1c1c[nH]c2ccccc12 [Tivantinib]
- EC50, CellTiter-Glo [10]: 222 nM
- EC50, CellTiter-Glo [12]: 973 nM
- EC50, CellTiter-Glo [13]: > 1000 nM
- EC50, CellTiter-Glo [14]: 810 nM
- EC50, CellTiter-Blue viability [15]: 597 nM
- EC50, CellTiter-Blue viability [16]: 99 nM
- EC50, CellTiter-Blue viability [18]: 578 nM
- EC50, CellTiter-Blue viability [19]: 331 nM
- EC50, CellTiter-Blue viability [20]: 592 nM
- EC50, CellTiter-Blue viability [21]: 340 nM
- EC50, CellTiter-Blue viability [22]: 676 nM
- EC50, CellTiter-Blue viability [23]: 43.5 nM
- EC50, CellTiter-Blue viability [24]: 613 nM
- EC50, CellTiter-Blue viability [25]: 398 nM
- EC50, CellTox Green [1]: 96.6 nM
- EC50, CellTox Green [40]: 266 nM
- EC50, CellTox Green [27]: 671 nM
- EC50, CellTox Green [38]: 474 nM
- EC50, CellTox Green [39]: 399 nM
- EC50, CellTox Green [29]: 6.67 nM
- EC50, CellTiter-Blue viability [30]: 847 nM
- EC50, CellTiter-Blue viability [32]: 543 nM
- EC50, CellTiter-Blue viability [33]: 674 nM
- EC50, CellTiter-Blue viability [34]: 759 nM
- normalised viability ([2]; 1000 nM): 21.5%
- normalised viability ([3]; 10 nM): 82.9%
- normalised viability ([4]; 1000 nM): 57.8%
- normalised viability ([5]; 10 nM): 100%
- normalised viability ([6]; 1000 nM): 26.8%
- normalised viability ([7]; 1000 nM): 29.8%
- normalised viability ([8]; 1000 nM): 55.2%
- normalised viability ([9]; 10 nM): 97.9%
